Where “and” joins values, the source holds several entries; their conditions need not be identical. Equal values may be shown once.

Consider 15 molecules from article PMC6273072, “Identification of a New Morpholine Scaffold as a P2Y12 Receptor Antagonist” (Molecules, 2016).

Data set [1] deals with ADP-induced platelet aggregation. The data set is described as follows: Inhibition of ADP-induced platelet aggregation, 96-well light transmission aggregometry. Type of data set: cell-based, human. Particulars: for IC50: 20 μM ADP; for effect of pre-incubation / time on inhibition of ADP-induced platelet aggregation, in words: data not shown. The procedure: Platelets were isolated from 400 mL whole blood containing 56 mL of CPDA-1 anticoagulant purchased from Chung-Nam Blood Center (Daejeon, South Korea) by centrifugation at 260× g for 5 min. The resultant platelet-rich plasma was centrifuged at 370× g for 6 min, and the platelet pellet (10^9/mL) was resuspended in 45 mL plasma and stabilized by agitation for 1 h at 22 °C in blood reservoir. The product was used for experiments within 24 h. Platelet concentrate (PC) was transferred to a new 50-mL Falcon tube and the number of platelets was counted using the ABC Vet blood counter (ABX Diagnostics, Montpellier, France). A 30-mL volume of PCs from the same donor was centrifuged at 1500× g for 10 min at room temperature to obtain platelet-poor plasma (PPP). The platelet count was adjusted to 3–4 × 10^8/mL by diluting with PPP.
Inhibition of ADP-induced aggregation was assessed in a Costar 96-well flat-bottom plate (Sigma-Aldrich, St. Louis, MO, USA) at room temperature. A 188-µL volume of the diluted platelet was added to each well of the plate along with 2 µL of test compound dissolved in dimethyl sulfoxide (DMSO). The reagents were mixed by placing the plate on a shaker at 1050 rpm for 1 min. A 10-µL volume of 400 μM ADP (final concentration: 20 μM) was added to the wells, and after additional shaking at room temperature for 3 min, the absorption of the samples was read at 595 nm on a Softmax microplate reader (Molecular Devices, Sunnyvale, CA, USA). A dose-response curve was generated using serial dilutions of ADP by adding the vehicle DMSO instead of antagonists in order to calculate the half-maximal effective concentration (EC50) of ADP. Inhibition of aggregation was determined as the increase in absorption at 595 nm after 3 min of incubation relative to absorption values of control preparations (0 and 20 μM ADP without antagonists). Sigmoidal dose-response curves and half-maximal inhibitory concentration (IC50) were derived by non-linear regression analysis using Prism 5.01 software (GraphPad, San Diego, CA, USA).

The target in data set [2] is T1, rhP2Y12 receptor (Homo sapiens, UniProt Q9H244).
T1 construct: expressed in transfected cells
T1 sequence (Q9H244 whole entry): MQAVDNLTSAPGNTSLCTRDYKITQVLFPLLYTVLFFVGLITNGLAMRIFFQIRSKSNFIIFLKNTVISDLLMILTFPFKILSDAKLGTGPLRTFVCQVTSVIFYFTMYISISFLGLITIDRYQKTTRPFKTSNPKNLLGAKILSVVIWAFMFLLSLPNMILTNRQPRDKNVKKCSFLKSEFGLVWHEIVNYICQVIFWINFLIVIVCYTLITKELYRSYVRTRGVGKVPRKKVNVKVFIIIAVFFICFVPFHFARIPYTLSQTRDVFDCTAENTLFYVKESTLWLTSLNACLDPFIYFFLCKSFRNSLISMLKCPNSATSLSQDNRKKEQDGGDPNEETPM
The data set is described as follows: rhP2Y12 receptor binding assay with [3H]-2-MeSADP (HEK293T membranes). Particulars: for IC50: 1 nM [3H]-2-MeSADP, HEK293T-rhP2Y12 membranes. The procedure:
(§1) The pDisplay-human P2Y12 DNA clone and pDisplay-human P2Y13 DNA clone were stably expressed in HEK293T and COS-7 cells, respectively; recombinant human (rh)P2Y12- and rhP2Y13-expressing cells were resuspended in hypotonic buffer consisting of 10 mM HEPES, 10 mM NaCl, 1 mM EDTA, 1 mM EGTA (pH 7.4), and protease inhibitor cocktail. Following 15-min incubation on ice, cells were homogenized on ice using a glass/teflon homogenizer (1000 rpm, 10 strokes). The homogenate was centrifuged at 500 × g for 15 min and the supernatant was centrifuged at 100,000× g for 30 min. The membrane pellet was adjusted to 1 mg/mL with membrane buffer consisting of 10 mM HEPES, 5 mM KCl, and 130 mM NaCl (pH 7.4) and stored at −80 °C. A 100-μL volume of 0.2 mg/mL membrane protein was added to each well of a 96-well plate along with 25 μL of test compound and [3H]2-MeSADP or [3H]ADP for a total reaction volume of 0.15 mL/well. The plate was incubated for 1 h at room temperature. The reaction was terminated by passing the solution through a GF/B filter presoaked with 0.1% polyethyleneimine using a 96-well cell harvester. […] Radioactivity of the P2Y12 receptor or P2Y13 receptor bound to the membrane were measured using a scintillation TopCount instrument (PerkinElmer, Boston, MA, USA). […] Percent inhibition of binding was calculated as follows: (100—(specific binding in the presence of test material/specific binding in the absence of test material × 100)).

The target in data set [3] is T1, rhP2Y12 receptor. Description: rhP2Y12 receptor binding assay with [3H]ADP (HEK293T membranes). The following applies: for IC50: 3 nM [3H]ADP, HEK293T-rhP2Y12 membranes. How it is done: as §1
Another data set addresses T2, human P2Y1 receptor (Homo sapiens, UniProt P47900).
T2 construct: expressed in transfected cells
Description: P2Y1-mediated Ca2+ mobilization in NIH3T3-P2Y1 + Gq cells (FLIPR). Type of data set: cell-based. The following applies: for inhibitory effect at P2Y1 receptor, in words: up to 100 μM. How it is done:
Intracellular Ca^2+ mobilization was analyzed using the FLIPR 5 assay kit as previously described. Briefly, pDisplay-human P2Y1 DNA clone and pcDNA-Gq DNA clone were stably expressed in NIH3T3 cells. NIH3T3-P2Y1 + Gq cells (3 × 10^5 cells/mL) were seeded in a 96-well plate and allowed to adhere overnight. An equal volume of FLIPR 5 assay kit loading buffer (Molecular Devices) was added directly to the culture medium for 1 h at room temperature, followed by 20-min incubation after adding the test compounds. Changes in intracellular Ca^2+ were measured with a FlexStation II scanning fluorometer (Molecular Devices).
A general note: Calcium flux is commonly read through the fluorescence of an indicator in the cells.

For another data set, the target named is T3, rhP2Y13 receptor (Homo sapiens, UniProt Q9BPV8).
T3 construct: expressed in transfected cells
T3 sequence (Q9BPV8 1-354): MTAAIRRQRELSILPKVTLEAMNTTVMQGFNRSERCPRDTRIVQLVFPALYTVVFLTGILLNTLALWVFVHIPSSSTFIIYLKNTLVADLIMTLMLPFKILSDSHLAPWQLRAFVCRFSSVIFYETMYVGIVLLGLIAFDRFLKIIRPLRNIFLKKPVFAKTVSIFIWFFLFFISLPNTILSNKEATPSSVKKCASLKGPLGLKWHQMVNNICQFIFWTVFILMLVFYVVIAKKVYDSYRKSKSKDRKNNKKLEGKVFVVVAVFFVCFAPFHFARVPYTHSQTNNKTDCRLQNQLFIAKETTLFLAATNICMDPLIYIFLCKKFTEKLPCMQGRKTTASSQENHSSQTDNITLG
Description: rhP2Y13 receptor [3H]2-MeSADP binding assay (COS-7 membranes). How it is done:
as §1

On the set-up of data set [4]: method as in PMID 25065553. Particulars: side effect of ticagrelor; cited from earlier work.
[5] abbreviates: Homo sapiens, Platelet, 96-well plate.
[6] abbreviates: read-out: IC50 vs. [3H]-2-MeSADP.

T2 sequence (P47900 whole entry): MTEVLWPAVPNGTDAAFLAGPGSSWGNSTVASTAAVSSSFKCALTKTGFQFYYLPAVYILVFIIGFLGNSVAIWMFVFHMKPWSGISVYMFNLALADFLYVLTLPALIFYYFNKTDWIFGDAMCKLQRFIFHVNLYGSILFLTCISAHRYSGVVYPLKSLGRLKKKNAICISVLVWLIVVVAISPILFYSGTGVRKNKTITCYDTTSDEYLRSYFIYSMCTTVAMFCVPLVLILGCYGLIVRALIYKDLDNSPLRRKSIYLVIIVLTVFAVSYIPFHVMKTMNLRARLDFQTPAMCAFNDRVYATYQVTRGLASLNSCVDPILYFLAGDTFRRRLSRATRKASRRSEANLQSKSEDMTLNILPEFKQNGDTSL

`COc1cccc(-n2nc(C#N)c(Cl)cc2=O)c1` [Compound A, 4-chloro-1-(3-methoxyphenyl)-6-oxopyridazine-3-carbonitrile]: the 50% inhibitory concentration (IC50) (in general, the point on the concentration scale where inhibition reaches its midpoint) in data set [1] (setting [5]) was 8.04 ± 0.51 µM; at rhP2Y12 receptor [2] (setting [6]), > 30 µM; on rhP2Y12 receptor [3] (read-out: IC50 vs. [3H]ADP), > 30 µM.
In the case of `CSc1nc(N)c2ncn([C@H]3[C@H](O)[C@H](O)[C@]4(COP(=O)(O)OP(=O)(O)O)C[C@H]34)c2n1` [MRS2365], the EC50 on human P2Y1 receptor (Ca2+ mobilization, NIH3T3-P2Y1 + Gq cells, read-out: EC50 for P2Y1 receptor activation) stood at 0.03 µM.
Consider `N#Cc1nccnc1S(=O)(=O)c1cccs1` [Compound F, 3-thiophen-2-ylsulfonylpyrazine-2-carbonitrile], for which the concentration for half-maximal inhibition (IC50) is 9.35 ± 2.19 µM in data set [1] (setting [5]), > 30 µM on rhP2Y12 receptor [2] (setting [6]) and > 30 µM at rhP2Y12 receptor [3] (read-out: IC50 vs. [3H]ADP). Besides, the “inhibition of [3H]-2-MeSADP binding to rhP2Y12, in words” value on rhP2Y12 receptor [2] is reported as “slightly inhibited”. Moreover, the “inhibition of [3H]ADP binding to rhP2Y12, in words” value on rhP2Y12 receptor [3] is listed as “slightly inhibited”.
`Cc1nc(N=Nc2cc([N+](=O)[O-])ccc2Cl)c(COP(=O)(O)O)c(C=O)c1O` [MRS2211]: the IC50 on rhP2Y13 receptor (1 nM [3H]2-MeSADP, read-out: IC50, inhibition of [3H]2-MeS-ADP binding to rhP2Y13) turned out to be 9.4 µM.
Turning to `Nc1ncnc2c1ncn2[C@@H]1O[C@H](COP(=O)(O)OP(=O)(O)O)[C@@H](O)[C@H]1O` [ADP, Adenosine 5′-diphosphate, reference compound], in data set [1] (Homo sapiens, Platelet, 96-well plate, read-out: EC50 of ADP, concentration-dependent platelet stimulation), the EC50 was 4.2 µM. In addition, the IC50 came to 24.8 ± 2.09 µM on rhP2Y12 receptor [2] (setting [6]) and 0.19 ± 0.1 µM at rhP2Y12 receptor [3] (read-out: IC50 vs. [3H]ADP). Further, the “fold higher potency of ADP than 2-MeSADP in competing with [3H]ADP” value on rhP2Y12 receptor [3] is reported as 90 fold.
As for `CN(C)c1ccc(C(c2cc3c(cc2O)OCO3)N2CCOCC2)cc1` (stereo not shown) [Compound E, 6-[(4-dimethylamino-phenyl)-morpholin-4-yl-methyl]-benzo[1,3]dioxol-5-ol], the IC50 in data set [1] (setting [5]) is 6.21 ± 0.71 µM; at rhP2Y12 receptor [2] (setting [6]), 15.5 µM; on rhP2Y12 receptor [3] (read-out: IC50 vs. [3H]ADP), 8.3 µM and 8.33 µM. Moreover, the “effect of pre-incubation / time on inhibition of ADP-induced platelet aggregation, in words” value in data set [1] is given as “did not increase the potency”. Moreover, the “fold higher potency vs [3H]ADP than vs [3H]2-MeSADP” value at rhP2Y12 receptor [3] is listed as 1.9 fold. For the same molecule, the “inhibitory effect at P2Y1 receptor, in words” value (“inhibitory effect” below) on human P2Y1 receptor (100 nM MRS2365) is listed as “did not exert an inhibitory effect”. Further, at rhP2Y13 receptor (up to 100 μM), the “inhibition of [3H]2-MeS-ADP binding to rhP2Y13, in words” value was “did not inhibit”.
`CCCSc1nc(N[C@@H]2C[C@H]2c2ccc(F)c(F)c2)c2nnn([C@@H]3C[C@H](OCCO)[C@@H](O)[C@H]3O)c2n1` [Ticagrelor, reference compound]: the half-maximal inhibitory concentration (IC50) in data set [1] (setting [5]) was found to be 0.32 ± 0.02 µM; on rhP2Y12 receptor [2] (IC50 vs. [3H]-2-MeSADP), 0.04 ± 0.02 µM; on rhP2Y12 receptor [3] (IC50 vs. [3H]ADP), 8.4 ± 3.05 µM. Further, in data set [1], the “effect of pre-incubation / time on inhibition of ADP-induced platelet aggregation, in words” value was “time-dependent manner”. Moreover, at rhP2Y12 receptor [3], the “fold lower potency vs [3H]ADP than vs [3H]2-MeSADP” value is listed as 210 fold. Besides, the “inhibitory effect” value at human P2Y1 receptor (100 nM MRS2365) was “did not exert an inhibitory effect”. The “selectivity, rhP2Y13 in comparison to rhP2Y12” value at rhP2Y13 receptor ([3H]2-MeS-ADP binding) is given as > 1000 fold. Besides, in data set [4], the “shortness of breath (dyspnea) incidence” value was 14%.
On to `Nc1ncnc2c1ncn2[C@@H]1O[C@H](COP(=O)(O)OP(=O)(O)O)[C@@H](O)[C@H]1O` [[^3H]ADP, reference compound], for which the Kd at rhP2Y12 receptor [3] ([3H]ADP saturation binding, read-out: Kd of radioligand at rhP2Y12 (saturation, Scatchard)) was found to be 0.0097 µM.
On to `Cn1sc(=O)c2cc(S(=O)(=O)NC3CC3)ccc21` [Compound B, N-cyclopropyl-1-methyl-3-oxo-2,1-benzothiazole-5-sulfonamide], for which the values for the half-inhibitory concentration (IC50) (in data set [1] (setting [5]); on rhP2Y12 receptor [2] (setting [6]); at rhP2Y12 receptor [3] (read-out: IC50 vs. [3H]ADP)) were 9.49 ± 1.15 µM, > 30 µM and > 30 µM, respectively.
Turning to `CNc1ncnc2c1ncn2[C@H]1C[C@H](OP(=O)(O)O)[C@@H](COP(=O)(O)O)O1` [MRS2179, reference compound], the IC50 in data set [1] (96-well plate) came out at 1.1 ± 0.01 µM; at human P2Y1 receptor (100 nM MRS2365, read-out: IC50, block of MRS2365 action at P2Y1 receptor) it was 0.66 µM.
For the molecule `Nc1ncnc2c1ncn2[C@@H]1O[C@H](COP(=O)(O)OP(=O)(O)OP(=O)(O)O)[C@@H](O)[C@H]1O` [ATP, Adenosine 5′-triphosphate, reference compound], the IC50 in data set [1] (setting [5]) was found to be 2.14 ± 0.51 µM.
`COc1ccc(C(=O)C=CSc2nncn2C)cc1` [Compound D, 1-(4-methoxyphenyl)-3-[(4-methyl-1,2,4-triazol-3-yl)sulfanyl]prop-2-en-1-one]: the figures for the IC50 (in data set [1] (setting [5]); at rhP2Y12 receptor [2] (setting [6]); at rhP2Y12 receptor [3] (read-out: IC50 vs. [3H]ADP)) were 6.08 ± 0.11 µM, > 30 µM and > 30 µM, respectively.
In the case of “2-methylthioadenosine 5′-monophosphate [Compound 2-MeSAMP, reference compound]”, the midpoint of inhibition in data set [1] (96-well plate), the IC50, lay at 1.09 ± 0.16 µM. The “inhibitory effect” value on human P2Y1 receptor (100 nM MRS2365) is “did not exert an inhibitory effect”.
As to `Cn1ncc(S(=O)(=O)Cc2ccccc2)c(Br)c1=O` [Compound C, 5-benzylsulfonyl-4-bromo-2-methylpyridazin-3-one], the IC50 in data set [1] (setting [5]) was 4.03 ± 0.95 µM; at rhP2Y12 receptor [2] (setting [6]), > 30 µM; at rhP2Y12 receptor [3] (read-out: IC50 vs. [3H]ADP) it was > 30 µM.
Turning to `CSc1nc(N)c2ncn([C@@H]3O[C@H](COP(=O)(O)OP(=O)(O)O)[C@@H](O)[C@H]3O)c2n1` [Compound 2-MeSADP, reference compound], the IC50 at rhP2Y12 receptor [2] (setting [6]) turned out to be 0.12 ± 0.02 µM; at rhP2Y12 receptor [3] (read-out: IC50 vs. [3H]ADP), 17.2 ± 4.62 µM.
